Assay [1] relates to Mus musculus. In words: In vivo analgesic activity of fluoro-enkephalin analog was determined against the compound at 10E-9 M/mouse; i.c.v. The assay is classed as functional.
Assay [2] has as its target Mu-type opioid receptor (Rattus norvegicus, UniProt P33535). Kind of assay: Compound was evaluated for its binding affinity against enkephalin mu receptor using [3H]PL-017 as ligand in rat cerebrum in vitro.
Assay [3] concerns the target Delta-type opioid receptor (Rattus norvegicus, UniProt P33533). In words: Compound was evaluated for its binding affinity against enkephalin delta receptor using [3H]DPDPE as ligand in rat cerebrum in vitro.
Assay [4] addresses Kappa-type opioid receptor (Cavia porcellus, UniProt P41144). Kind of assay: Compound was evaluated for its binding affinity against enkephalin kappa receptor using [3H]U-69593 as ligand in guinea pig cerebrum in vitro.

*1 amine or outer side, *2 acyl side, *3 side chain or, on linkers, in order; H or OH if unused. Where a SMILES comes first, the peptide text is derived from it. [ ]: non-standard residue; d: D form. Nva(5,5,5-F3) = N[C@@H](CCC(F)(F)F)C(=O)O; X1 = O=C([C@@H](CCC(F)(F)F)N[*:1])[*:2]; X2 = O=C([C@H](CCCC(F)(F)F)N[*:1])[*:2]; NMeF = CN[C@@H](Cc1ccccc1)C(=O)O

Delta-type opioid receptor, sequence (P33533 whole entry): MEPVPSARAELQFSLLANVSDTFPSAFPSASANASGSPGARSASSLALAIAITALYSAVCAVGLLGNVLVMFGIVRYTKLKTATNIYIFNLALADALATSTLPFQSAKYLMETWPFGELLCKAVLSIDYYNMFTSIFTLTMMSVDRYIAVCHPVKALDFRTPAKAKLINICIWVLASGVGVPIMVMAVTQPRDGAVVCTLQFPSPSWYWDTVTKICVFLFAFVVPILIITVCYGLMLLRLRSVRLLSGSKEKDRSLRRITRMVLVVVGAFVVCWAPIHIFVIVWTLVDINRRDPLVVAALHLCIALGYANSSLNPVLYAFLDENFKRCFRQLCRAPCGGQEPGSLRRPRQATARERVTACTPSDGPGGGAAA
Kappa-type opioid receptor, sequence (P41144 whole entry): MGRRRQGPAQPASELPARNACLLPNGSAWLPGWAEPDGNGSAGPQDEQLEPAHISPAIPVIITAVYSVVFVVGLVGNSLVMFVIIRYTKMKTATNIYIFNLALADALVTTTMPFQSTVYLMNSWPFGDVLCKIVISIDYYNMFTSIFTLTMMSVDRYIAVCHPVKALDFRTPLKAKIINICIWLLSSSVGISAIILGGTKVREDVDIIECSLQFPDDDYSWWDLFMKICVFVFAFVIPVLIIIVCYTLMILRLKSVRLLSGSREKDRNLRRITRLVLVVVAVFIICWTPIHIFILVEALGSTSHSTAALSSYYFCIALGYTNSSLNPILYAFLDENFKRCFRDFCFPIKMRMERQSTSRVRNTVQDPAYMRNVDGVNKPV
Mu-type opioid receptor, sequence (P33535 whole entry): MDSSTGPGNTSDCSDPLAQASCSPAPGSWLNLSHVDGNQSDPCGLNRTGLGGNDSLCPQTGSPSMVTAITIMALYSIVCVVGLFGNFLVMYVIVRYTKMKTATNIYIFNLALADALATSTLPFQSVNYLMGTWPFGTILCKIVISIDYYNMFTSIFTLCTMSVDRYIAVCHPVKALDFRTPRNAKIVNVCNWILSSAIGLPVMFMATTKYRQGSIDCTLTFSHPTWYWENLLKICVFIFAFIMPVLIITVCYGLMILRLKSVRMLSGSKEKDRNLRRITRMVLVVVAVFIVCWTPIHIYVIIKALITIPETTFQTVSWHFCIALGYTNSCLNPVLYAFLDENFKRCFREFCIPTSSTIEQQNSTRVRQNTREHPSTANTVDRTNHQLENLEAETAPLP

Turning to `CSCC[C@H](NC(=O)[C@H](Cc1ccccc1)NC(=O)CNC(=O)CNC(=O)[C@@H](N)Cc1ccc(O)cc1)C(=O)O`, the ED50 in assay [1] came out at 7e-07 M mouse-1.

`CCC[C@@H](NC(=O)[C@@H](N)Cc1ccc(O)cc1)C(=O)NCC(=O)N[C@@H](Cc1ccccc1)C(=O)N[C@@H](CCSC)C(N)=O` yielded an ED50 in assay [1] of 4e-11 M mouse-1.

Compound `CSCC[C@H](NC(=O)[C@H](Cc1ccccc1)NC(=O)[C@H](CCC(F)(F)F)NC(=O)CNC(=O)[C@@H](N)Cc1ccc(O)cc1)C(N)=O` (H-YG[Nva(5,5,5-F3)]FM-NH2) came in with an ED50 in assay [1] of 2.2e-08 M mouse-1.

Compound `CSCC[C@H](NC(=O)[C@H](Cc1ccccc1)NC(=O)[C@H](CCC(F)(F)F)NC(=O)CNC(=O)[C@@H](N)Cc1ccc(O)cc1)C(=O)O` (H-YG[Nva(5,5,5-F3)]FM-OH) came in with an ED50 in assay [1] of 1.4e-07 M mouse-1.

In assay [1], `CSCC[C@H](NC(=O)[C@H](Cc1ccccc1)NC(=O)[C@@H](CCC(F)(F)F)NC(=O)CNC(=O)[C@@H](N)Cc1ccc(O)cc1)C(N)=O` (H-YG[X1]FM-NH2) showed an ED50 of 1.2e-08 M mouse-1.

For the compound `CSCC[C@H](NC(=O)[C@H](Cc1ccccc1)NC(=O)CNC(=O)[C@H](CCC(F)(F)F)NC(=O)[C@@H](N)Cc1ccc(O)cc1)C(N)=O` (H-Y[Nva(5,5,5-F3)]GFM-NH2), in assay [1], the ED50 is listed as 7e-12 M mouse-1. In addition, the half-maximal inhibitory concentration (IC50) (as a rule, the concentration that inhibits the measured activity by half) in assay [2] is 0.5 nM; in assay [3], 2 nM; in assay [4], 400 nM.

In assay [1], `CSCC[C@H](NC(=O)[C@H](Cc1ccccc1)N(C)C(=O)CNC(=O)[C@H](CCC(F)(F)F)NC(=O)[C@@H](N)Cc1ccc(O)cc1)C(N)=O` (H-Y[Nva(5,5,5-F3)]G[NMeF]M-NH2) returned an ED50 of 2e-12 M mouse-1.

With `CSCC[C@H](NC(=O)[C@H](Cc1ccccc1)NC(=O)CNC(=O)[C@@H](CCC(F)(F)F)NC(=O)[C@@H](N)Cc1ccc(O)cc1)C(N)=O` (H-Y[X1]GFM-NH2), the ED50 in assay [1] came to 2.5e-08 M mouse-1.

`CSCC[C@H](NC(=O)[C@H](Cc1ccccc1)NC(=O)CNC(=O)[C@@H](CCC(F)(F)F)NC(=O)[C@@H](N)Cc1ccc(O)cc1)C(=O)O` (H-Y[X1]GFM-OH) gave an ED50 in assay [1] of 1.2e-07 M mouse-1.

Compound `CSCC[C@H](NC(=O)[C@H](Cc1ccccc1)NC(=O)CNC(=O)[C@H](CCCC(F)(F)F)NC(=O)[C@@H](N)Cc1ccc(O)cc1)C(N)=O` (H-Y[X2]GFM-NH2) registered an ED50 in assay [1] of 7e-11 M mouse-1.

The compound `CN1CC[C@]2(C)CC(Cc3ccc(O)cc32)C1` (single isomer, unassigned) [EPTAZOCINE] displayed an ED50 in assay [1] of 5e-11 M mouse-1.

In the case of `CN1CC[C@]23c4c5ccc(O)c4O[C@H]2[C@@H](O)C=C[C@H]3[C@H]1C5.Cl` [MORPHINE HYDROCHLORIDE], the ED50 in assay [1] came out at 7e-11 M mouse-1.

(Values after ChEMBL document CHEMBL1126401, “New potent enkephalin analogs containing trifluoromethylamino acid residues” (Bioorg Med Chem Lett, 1992).)
